According to the supplement of paper PMC10733146:

Key:
Test in all cases: viability relative to DMSO control (fraction); higher = less drug effect (more viable cells)
Settings in all cases: 48 h
Venetoclax = compound: CC1(C)CCC(CN2CCN(c3ccc(C(=O)NS(=O)(=O)c4ccc(NCC5CCOCC5)c([N+](=O)[O-])c4)c(Oc4cnc5[nH]ccc5c4)c3)CC2)=C(c2ccc(Cl)cc2)C1 [Venetoclax]
Outline: (§1)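 Viability was quantified by CellTiter-Glo luminescence and related to the median of 16 inner DMSO wells. Before that, primary mononuclear tumour cells, fresh or cryopreserved and Ficoll-isolated from blood or bone marrow or prepared from processed lymph node, were plated at 4 × 10^4 cells per well in 384-well plates containing pre-plated compounds at five concentrations, one well each. Plates were incubated in RPMI-1640 with penicillin/streptomycin, L-glutamine and human serum at 37 °C and 5% CO2 for 48 h.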

Duvelisib = compound: C[C@H](Nc1ncnc2nc[nH]c12)c1cc2cccc(Cl)c2c(=O)n1-c1ccccc1 [Duvelisib]
Outline: as §1

[1] = compound: O=C(NO)c1cccc(C(=O)NCCc2ccccc2)c1
Outline: as §1

Selinexor = compound: O=C(/C=C\n1cnc(-c2cc(C(F)(F)F)cc(C(F)(F)F)c2)n1)NNc1cnccn1 [Selinexor]
Outline: as §1

Bendamustine = compound: Cn1c(CCCC(=O)O)nc2cc(N(CCCl)CCCl)ccc21 [Bendamustine]
Outline: as §1

[2] = compound: C[C@H](NC(=O)CCC(F)(F)F)C(=O)N[C@@H]1C(=O)N(CCO)c2ncccc2-c2ccccc21
Outline: as §1

Everolimus = compound: CO[C@H]1C[C@@H]2CC[C@@H](C)[C@@](O)(O2)C(=O)C(=O)N2CCCC[C@H]2C(=O)O[C@H]([C@H](C)C[C@@H]2CC[C@@H](OCCO)[C@H](OC)C2)CC(=O)[C@H](C)/C=C(\C)[C@@H](O)[C@@H](OC)C(=O)[C@H](C)C[C@H](C)/C=C/C=C/C=C/1C [Everolimus]
Outline: as §1

Idasanutlin (RS7388) = compound: COc1cc(C(=O)O)ccc1NC(=O)[C@@H]1N[C@@H](CC(C)(C)C)[C@](C#N)(c2ccc(Cl)cc2F)[C@H]1c1cccc(Cl)c1F [Idasanutlin (RS7388)]
Outline: as §1

Navitoclax = compound: CC1(C)CCC(c2ccc(Cl)cc2)=C(CN2CCN(c3ccc(C(=O)NS(=O)(=O)c4ccc(N[C@H](CCN5CCOCC5)CSc5ccccc5)c(S(=O)(=O)C(F)(F)F)c4)cc3)CC2)C1 [Navitoclax]
Outline: as §1

Filgotinib = compound: O=C(Nc1nc2cccc(-c3ccc(CN4CCS(=O)(=O)CC4)cc3)n2n1)C1CC1 [Filgotinib]
Outline: as §1

[3] = compound: CCc1ccc(/C=C2/SC(=S)NC2=O)cc1
Outline: as §1

Midostaurin hydrate = compound: CO[C@@H]1[C@H](N(C)C(=O)c2ccccc2)C[C@H]2O[C@]1(C)n1c3ccccc3c3c4c(c5c6ccccc6n2c5c31)C(=O)NC4 [Midostaurin hydrate]
Outline: as §1

Vindesine = compound: CC[C@]1(O)C[C@@H]2CN(CCc3c([nH]c4ccccc34)[C@@](C(=O)OC)(c3cc4c(cc3OC)N(C)[C@H]3[C@@](O)(C(N)=O)[C@H](O)[C@]5(CC)C=CCN6CC[C@]43[C@@H]65)C2)C1 [Vindesine]
Outline: as §1

primary B-PLL patient cells (S016) was tested, and the viability (Venetoclax; 0.00064 µM) was 0.981, the viability (Venetoclax; 0.0032 µM) was 0.834 and the viability (Venetoclax; 0.016 µM) was 0.362. It also gave a viability (Venetoclax; 0.08 µM) of 0.126, a viability (Venetoclax; 0.4 µM) of 0.0603 and a viability (Duvelisib; 0.0016 µM) of 0.788. The viability (Duvelisib; 0.008 µM) was 0.821, the viability (Duvelisib; 0.04 µM) was 0.708 and the viability (Duvelisib; 0.2 µM) was 0.675. For the same test system, the viability (Duvelisib; 1 µM) was 0.674, the viability ([1]; 0.024 µM) was 1.07 and the viability ([1]; 0.12 µM) was 1.03. For the same test system, the viability ([1]; 0.6 µM) was 0.986, the viability ([1]; 3 µM) was 1.05 and the viability ([1]; 15 µM) was 0.896. The viability (Selinexor; 0.008 µM) was 0.949, the viability (Selinexor; 0.04 µM) was 0.929 and the viability (Selinexor; 0.2 µM) was 0.822. For the same test system, the viability (Selinexor; 1 µM) was 0.847, the viability (Selinexor; 5 µM) was 0.67 and the viability (Bendamustine; 0.032 µM) was 0.965. It also gave a viability (Bendamustine; 0.16 µM) of 0.953, a viability (Bendamustine; 0.8 µM) of 1.04 and a viability (Bendamustine; 4 µM) of 0.864. It also gave a viability (Bendamustine; 20 µM) of 0.496, a viability ([2]; 0.016 µM) of 1.29 and a viability ([2]; 0.08 µM) of 1.24. For the same test system, the viability ([2]; 0.4 µM) was 1.09, the viability ([2]; 2 µM) was 1.08 and the viability ([2]; 10 µM) was 0.949. The viability (Everolimus; 0.0032 µM) was 0.735, the viability (Everolimus; 0.016 µM) was 0.647 and the viability (Everolimus; 0.08 µM) was 0.665. For the same test system, the viability (Everolimus; 0.4 µM) was 0.659, the viability (Everolimus; 2 µM) was 0.697 and the viability (Idasanutlin (RS7388); 0.032 µM) was 0.719. The viability (Idasanutlin (RS7388); 0.16 µM) was 0.923, the viability (Idasanutlin (RS7388); 0.8 µM) was 0.333 and the viability (Idasanutlin (RS7388); 4 µM) was 0.0502. The viability (Idasanutlin (RS7388); 20 µM) was 0.0489, the viability (Navitoclax; 0.0032 µM) was 1.16 and the viability (Navitoclax; 0.016 µM) was 1.14. The viability (Navitoclax; 0.08 µM) was 0.767, the viability (Navitoclax; 0.4 µM) was 0.158 and the viability (Navitoclax; 2 µM) was 0.0503. For the same test system, the viability (Filgotinib; 0.024 µM) was 0.977, the viability (Filgotinib; 0.12 µM) was 1 and the viability (Filgotinib; 0.6 µM) was 0.977. For the same test system, the viability (Filgotinib; 3 µM) was 1.2, the viability (Filgotinib; 15 µM) was 0.221 and the viability ([3]; 0.024 µM) was 0.982. It also gave a viability ([3]; 0.12 µM) of 0.922, a viability ([3]; 0.6 µM) of 1.1 and a viability ([3]; 3 µM) of 0.971. The viability ([3]; 15 µM) was 0.963, the viability (Midostaurin hydrate; 0.024 µM) was 0.999 and the viability (Midostaurin hydrate; 0.12 µM) was 0.949. The viability (Midostaurin hydrate; 0.6 µM) was 1.05, the viability (Midostaurin hydrate; 3 µM) was 0.925 and the viability (Midostaurin hydrate; 15 µM) was 0.616. It also gave a viability (Vindesine; 0.016 µM) of 0.255, a viability (Vindesine; 0.08 µM) of 0.199 and a viability (Vindesine; 0.4 µM) of 0.222. The viability (Vindesine; 2 µM) was 0.164 and the viability (Vindesine; 10 µM) was 0.0777.

In the case of primary BL patient cells (S005), the viability (Venetoclax; 0.00064 µM) is reported as 0.989, the viability (Venetoclax; 0.0032 µM) is reported as 0.904 and the viability (Venetoclax; 0.016 µM) is reported as 0.944. It also gave a viability (Venetoclax; 0.08 µM) of 0.982, a viability (Venetoclax; 0.4 µM) of 0.994 and a viability (Duvelisib; 0.0016 µM) of 1.01. For the same test system, the viability (Duvelisib; 0.008 µM) was 1.03, the viability (Duvelisib; 0.04 µM) was 0.93 and the viability (Duvelisib; 0.2 µM) was 0.981. For the same test system, the viability (Duvelisib; 1 µM) was 0.831, the viability ([1]; 0.024 µM) was 1.08 and the viability ([1]; 0.12 µM) was 1. It also gave a viability ([1]; 0.6 µM) of 1.04, a viability ([1]; 3 µM) of 1.04 and a viability ([1]; 15 µM) of 1.03. It also gave a viability (Selinexor; 0.008 µM) of 0.977, a viability (Selinexor; 0.04 µM) of 0.923 and a viability (Selinexor; 0.2 µM) of 0.928. The viability (Selinexor; 1 µM) was 0.81, the viability (Selinexor; 5 µM) was 0.743 and the viability (Bendamustine; 0.032 µM) was 1.01. It also gave a viability (Bendamustine; 0.16 µM) of 1.06, a viability (Bendamustine; 0.8 µM) of 1.02 and a viability (Bendamustine; 4 µM) of 1.01. For the same test system, the viability (Bendamustine; 20 µM) was 1.07, the viability ([2]; 0.016 µM) was 1.03 and the viability ([2]; 0.08 µM) was 0.975. It also gave a viability ([2]; 0.4 µM) of 0.916, a viability ([2]; 2 µM) of 0.918 and a viability ([2]; 10 µM) of 0.695. For the same test system, the viability (Everolimus; 0.0032 µM) was 0.819, the viability (Everolimus; 0.016 µM) was 0.837 and the viability (Everolimus; 0.08 µM) was 0.787. It also gave a viability (Everolimus; 0.4 µM) of 0.848, a viability (Everolimus; 2 µM) of 0.8 and a viability (Idasanutlin (RS7388); 0.032 µM) of 1.28. It also gave a viability (Idasanutlin (RS7388); 0.16 µM) of 1.01, a viability (Idasanutlin (RS7388); 0.8 µM) of 1.09 and a viability (Idasanutlin (RS7388); 4 µM) of 1.31. It also gave a viability (Idasanutlin (RS7388); 20 µM) of 1, a viability (Navitoclax; 0.0032 µM) of 1.1 and a viability (Navitoclax; 0.016 µM) of 0.999. It also gave a viability (Navitoclax; 0.08 µM) of 1.11, a viability (Navitoclax; 0.4 µM) of 1.06 and a viability (Navitoclax; 2 µM) of 1.06. For the same test system, the viability (Filgotinib; 0.024 µM) was 0.996, the viability (Filgotinib; 0.12 µM) was 0.835 and the viability (Filgotinib; 0.6 µM) was 0.971. The viability (Filgotinib; 3 µM) was 0.909, the viability (Filgotinib; 15 µM) was 0.469 and the viability ([3]; 0.024 µM) was 0.918. The viability ([3]; 0.12 µM) was 0.926, the viability ([3]; 0.6 µM) was 1.06 and the viability ([3]; 3 µM) was 0.961. For the same test system, the viability ([3]; 15 µM) was 0.974, the viability (Midostaurin hydrate; 0.024 µM) was 0.905 and the viability (Midostaurin hydrate; 0.12 µM) was 0.92. The viability (Midostaurin hydrate; 0.6 µM) was 1.02, the viability (Midostaurin hydrate; 3 µM) was 0.896 and the viability (Midostaurin hydrate; 15 µM) was 0.77. For the same test system, the viability (Vindesine; 0.016 µM) was 0.812, the viability (Vindesine; 0.08 µM) was 0.859 and the viability (Vindesine; 0.4 µM) was 0.903. The viability (Vindesine; 2 µM) was 0.775 and the viability (Vindesine; 10 µM) was 0.892.
